Results from the NIST ThermoML archive (doi:10.1021/acs.jced.5b00582).
Numbers after ± are expanded uncertainties.

Tests used:
[1] = Liquid; for mass density: 298.15 K, 101.33 kPa, Pycnometric method; for vapor or sublimation pressure: Ebulliometric method (Recirculating still)
[2] = refractive index (Na D-line) (dimensionless); details: 298.15 K; 101.33 kPa; Liquid; Standard Abbe refractometry

mass density [1] [kg/m3]	vapor or sublimation pressure ([1]; 357.71 K) [kPa]	refractive index [2]	vapor or sublimation pressure ([1]; 385.12 K) [kPa]	vapor or sublimation pressure ([1]; 397.48 K) [kPa]	SMILES	vapor or sublimation pressure ([1]; 352.76 K) [kPa]
860.4 ± 0.3	101.3 ± 0.86	1.378 ± 0.0004	–	–	COCCOC [1,2-dimethoxyethane]	–
863.8 ± 0.3	–	1.3872 ± 0.0004	101.3 ± 0.86	–	CCC(C)OC(C)=O (configuration not stated) [1-methylpropyl ethanoate]	–
960.1 ± 0.3	–	1.4002 ± 0.0004	–	101.3 ± 0.86	COCCO [2-methoxyethan-1-ol]	–

SMILES	mass density [1] [kg/m3]	vapor or sublimation pressure ([1]; 357.71 K) [kPa]	refractive index [2]	vapor or sublimation pressure ([1]; 385.12 K) [kPa]	vapor or sublimation pressure ([1]; 397.48 K) [kPa]	vapor or sublimation pressure ([1]; 352.76 K) [kPa]
CCC(C)=O [butanone]	799.7 ± 0.3	–	1.3761 ± 0.0004	–	–	101.3 ± 0.86
